The record followed here is patent US7511145B2 (Genelabs Technologies, Inc., priority 2003, dated 2009).

The test has as its target T1, HCV-NS5b (Hepatitis C virus genotype 1b, UniProt Q9WMX2).
T1 construct: (His)6 (C); made in house; host or cells: XL-1 cells (E. coli), IPTG-inducible plasmid, nickel-NTA purification
The test can be described thus: HCV-NS5b enzyme assay (incorporation of radiolabeled UTP). In kind it is biochemical. Particulars: for inhibition at 33 µM / % inh@33: enzyme inhibition at compound concentration of 33 uM; for inhibition at 100 µM: read-out: % inh@100, enzyme inhibition at compound concentration of 100 uM; for % inh@100: enzyme inhibition at compound concentration of 100 uM. In short, it runs like this:
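His6-tagged NS5b lacking the C-terminal 21 residues, expressed in XL-1 and Ni-NTA purified. Reaction at pH 7.5 with 5 mM MgCl2, 10 μM each NTP including [3H]-UTP and biotinylated HCV heteropolymeric template, 2 h at 37° C; SPA read-out; % inhibition at 100 and 33 uM versus no-compound control, background subtracted.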

With `O=C(N[C@@H](Cc1ccc(O)cc1)C(=O)O)c1ccc2c(c1)nc(-c1ccc3nc(-c4ccccc4)cnc3c1)n2C1CCCCC1` [Compound 519, 2-{[1-Cyclohexyl-2-(2-phenyl-quinoxalin-6-yl)-1H-benzoimidazole-5-carbonyl]-amino}-3-(4-hydroxy-phenyl)-propionic acid], the inhibition at 33 µM was 96.9% and the inhibition at 100 µM was 99.1%.

`O=C(O)[C@@H]1Cc2ccccc2CN1C(=O)c1ccc2c(c1)nc(-c1ccc3nc(-c4ccccc4)cnc3c1)n2C1CCCCC1` [Compound 520, 2-[1-Cyclohexyl-2-(2-phenyl-quinoxalin-6-yl)-1H-benzoimidazole-5-carbonyl]-1,2,3,4-tetrahydro-isoquinoline-3-carboxylic acid]: the inhibition at 33 µM worked out at 94.8% and the inhibition at 100 µM came to 98.9%.

Regarding `CN1CCN(C(=O)c2ccc3c(c2)nc(-c2cc4ccc(-c5ccccc5-c5ccc(Cl)cc5)nc4cc2F)n3C2CCCCC2)CC1` [Compound 521, {2-[2-(4′-Chloro-biphen-2-yl)-7-fluoro-quinolin-6-yl]-1-cyclohexyl-1H-benzoimidazol-5-yl}-(4-methyl-piperazin-1-yl)-methanone], the inhibition at 33 µM is 84.8% and the inhibition at 100 µM was found to be 91.4%.

Regarding `CN1CCN(C(=O)c2ccc3c(c2)nc(-c2cc4ccc(-c5ccccc5-c5ccccc5)nc4cc2F)n3C2CCCCC2)CC1` [Compound 522, [2-(2-Biphen-2-yl-7-fluoro-quinolin-6-yl)-1-cyclohexyl-1H-benzoimidazol-5-yl]-(4-methyl-piperazin-1-yl)-methanone], the inhibition at 33 µM was determined as 76.7% and the inhibition at 100 µM turned out to be 74.2%.

Consider `N=C(N)NCCC[C@H](NC(=O)c1ccc2c(c1)nc(-c1ccc3nc(-c4ccccc4)cnc3c1)n2C1CCCCC1)C(=O)O` [Compound 523, 2-{[1-Cyclohexyl-2-(2-phenyl-quinoxalin-6-yl)-1H-benzoimidazole-5-carbonyl]-amino}-5-guanidino-pentanoic acid], for which the inhibition at 33 µM came to 87.1% and the inhibition at 100 µM stood at 95%.

Turning to `O=C(NCCS(=O)(=O)O)c1ccc2c(c1)nc(-c1ccc3nc(-c4ccccc4)cnc3c1)n2C1CCCCC1` [Compound 524], the “% inh@33” value was 74.09% and the “% inh@100” value stood at 93.58%.

`COc1ccc(-c2ccc(Cl)cc2)c(-c2ccc3cc(-c4nc5cc(-c6nnn[nH]6)ccc5n4C4CCCCC4)ccc3n2)c1` [Compound 525, 2-(4′-chloro-4-methoxy-biphen-2-yl)-6-[1-cyclohexyl-5-(1H-tetrazol-5-yl)-1H-benzoimidazol-2-yl]-quinoline]: the inhibition at 33 µM turned out to be 101% and the inhibition at 100 µM stood at 101%.

As for `O=C(O)c1ccc2cc(NC(=O)c3ccc4c(c3)nc(-c3ccc5nc(-c6ccccc6)cnc5c3)n4C3CCCCC3)ccc2c1` [Compound 526, 6-{[1-Cyclohexyl-2-(2-phenyl-quinoxalin-6-yl)-1H-benzoimidazole-5-carbonyl]-amino}-naphthalene-2-carboxylic acid], the inhibition at 33 µM is 96.8% and the inhibition at 100 µM was 99%.

For `COc1ccc(-c2ccc(Cl)cc2)c(-c2ccc3cc(-c4nc5cc(C(=O)O)ccc5n4C(C)C)ccc3n2)c1` [Compound 527, 2-[2-(4′-chloro-4-methoxy-biphen-2-yl)-quinolin-6-yl]-1-isopropyl-1H-benzoimidazole-5-carboxylic acid], the inhibition at 33 µM is 99.4% and the inhibition at 100 µM amounted to 101%.

With `COc1ccc(-c2ccc(Cl)cc2)c(-c2ccc3cc(-c4nc5cc(C(=O)O)ccc5n4C4CC4)ccc3n2)c1` [Compound 528, 2-[2-(4′-chloro-4-methoxy-biphen-2-yl)-quinolin-6-yl]-1-cyclopropyl-1H-benzoimidazole-5-carboxylic acid], the inhibition at 33 µM came to 100% and the inhibition at 100 µM worked out at 101%.

`COc1ccc(-c2ccc(Cl)cc2)c(-c2ccc3cc(-c4nc5cc(C(=O)O)ccc5n4C4CCCC4)ccc3n2)c1` [Compound 529, 2-[2-(4′-chloro-4-methoxy-biphen-2-yl)-quinolin-6-yl]-1-cyclopentyl-1H-benzoimidazole-5-carboxylic acid]: the inhibition at 33 µM turned out to be 99.2% and the inhibition at 100 µM was 99.8%.

With `COc1ccc(-c2ccc(Cl)cc2)c(-c2ccc3cc(-c4nc5cc(C(=O)O)ccc5n4CC(C)C)ccc3n2)c1` [Compound 530, 2-[2-(4′-Chloro-4-methoxy-biphen-2-yl)-quinolin-6-yl]-1-isobutyl-1H-benzoimidazole-5-carboxylic acid], the inhibition at 33 µM was 98.2% and the inhibition at 100 µM turned out to be 98.2%.

Consider `COc1ccc(-c2ccc(Cl)cc2)c(-c2ccc3cc(-c4nc5cc(C(=O)O)ccc5n4CC4CC4)ccc3n2)c1` [Compound 531, 2-[2-(4′-chloro-4-methoxy-biphen-2-yl)-quinolin-6-yl]-1-cyclopropylmethyl-1H-benzoimidazole-5-carboxylic acid], for which the inhibition at 33 µM stood at 100% and the inhibition at 100 µM stood at 99.3%.

`COc1ccc(-c2ccc(Cl)cc2)c(-c2ccc3cc(-c4nc5cc(C(=O)O)ccc5n4CCC(C)C)ccc3n2)c1` [Compound 532, 2-[2-(4′-chloro-4-methoxy-biphen-2-yl)-quinolin-6-yl]-1-(3-methyl-butyl)-1H-benzoimidazole-5-carboxylic acid]: the inhibition at 33 µM came to 99.6% and the inhibition at 100 µM was 98.8%.

Take `COc1ccc(-c2ccc(Cl)cc2)c(-c2ccc3cc(-c4nc5cc(C(=O)O)ccc5n4CCN(C)C)ccc3n2)c1` [Compound 533, 2-[2-(4′-chloro-4-methoxy-biphen-2-yl)-quinolin-6-yl]-1-(2-dimethylamino-ethyl)-1H-benzoimidazole-5-carboxylic acid]: the inhibition at 33 µM was 56.8% and the inhibition at 100 µM stood at 89.8%.

With `CCn1c(-c2ccc3nc(-c4cc(OC)ccc4-c4ccc(Cl)cc4)ccc3c2)nc2cc(C(=O)O)ccc21` [Compound 534, 2-[2-(4′-chloro-4-methoxy-biphen-2-yl)-quinolin-6-yl]-1-ethyl-1H-benzoimidazole-5-carboxylic acid], the inhibition at 33 µM amounted to 90.1% and the inhibition at 100 µM was found to be 101%.

For the compound `O=C(O)c1cnc2c(c1)nc(-c1ccc3nc(-c4cc(O)ccc4-c4ccc(Cl)cc4)ccc3c1)n2C1CCCCC1` [Compound 535, 2-[2-(4′-chloro-4-hydroxy-biphen-2-yl)-quinolin-6-yl]-3-cyclohexyl-3H-imidazo[4,5-b]pyridine-6-carboxylic acid], the inhibition at 33 µM stood at 101% and the inhibition at 100 µM is 100%.

Turning to `COc1ccc(-c2ccc(Cl)cc2)c(-c2ccc3cc(-c4[nH]c5cc(C(=O)O)ccc5c4C4CCCCC4)ccc3n2)c1` [Compound 536, 2-[2-(4′-Chloro-4-methoxy-biphen-2-yl)-quinolin-6-yl]-3-cyclohexyl-1H-indole-6-carboxylic acid], the inhibition at 33 µM is 97.5% and the inhibition at 100 µM was 98.9%.

In the case of `COc1ccc(-c2ccc(Cl)cc2)c(-c2ccc3cc(-c4nc5cc(C(=O)O)cnc5n4C4CCCCC4)ccc3n2)c1` [Compound 537, 2-[2-(4′-chloro-4-methoxy-biphen-2-yl)-quinolin-6-yl]-3-cyclohexyl-3H-imidazo[4,5-b]pyridine-6-carboxylic acid], the inhibition at 33 µM came to 100% and the inhibition at 100 µM is 99.8%.

On to `CCOC(=O)c1cnc2c(c1)nc(-c1ccc3nc(-c4cc(O)ccc4-c4ccc(Cl)cc4)ccc3c1)n2C1CCCCC1` [Compound 538, 2-[2-(4′-chloro-4-hydroxy-biphen-2-yl)-quinolin-6-yl]-3-cyclohexyl-3H-imidazo[4,5-b]pyridine-6-carboxylic acid Ethyl Ester], for which the inhibition at 33 µM stood at 56.6% and the inhibition at 100 µM is 72.8%.

For `O=C(O)c1cnc2c(c1)nc(-c1ccc3nc(-c4cc(C(=O)N5CCCC5)ccc4-c4ccc(Cl)cc4)ccc3c1)n2C1CCCCC1` [Compound 539, 2-{2-[4′-chloro-4-(pyrrolidine-1-carbonyl)-biphen-2-yl]-quinolin-6-yl}-3-cyclohexyl-3H-imidazo[4,5-b]pyridine-6-carboxylic acid], the inhibition at 33 µM worked out at 104% and the inhibition at 100 µM stood at 102%.

`O=C(c1ccc(-c2ccc(Cl)cc2)c(-c2ccc3cc(-c4nc5ccccc5n4C4CCCCC4)ccc3n2)c1)N1CCCC1` [Compound 540]: the “% inh@33” value was 91.13% and the “% inh@100” value was 95.05%.

For the compound `NC(=O)CC[C@H](NC(=O)c1ccc2c(c1)nc(-c1ccc3nc(-c4ccccc4)cnc3c1)n2C1CCCCC1)C(=O)O` [Compound 541, 4-Carbamoyl-2-{[1-cyclohexyl-2-(2-phenyl-quinoxalin-6-yl)-1H-benzoimidazole-5-carbonyl]-amino}-butyric acid], the inhibition at 33 µM is 76.1% and the inhibition at 100 µM was determined as 98.1%.

Turning to `NC(=O)[C@H](Cc1ccccc1)NC(=O)c1ccc2cc(-c3nc4cc(C(=O)O)ccc4n3C3CCCCC3)ccc2n1` [Compound 542, 2-[2-(1-Carbamoyl-2-phenylethylcarbamoyl)quinolin-6-yl]-1-cyclohexyl-1H-benzimidazole-5-carboxylic acid], the inhibition at 33 µM came to 81.1% and the inhibition at 100 µM was 98.6%.

As for `COc1ccc(-c2ccc(Cl)cc2)c(-c2ccc3cc(-c4nc5cc(C(=O)O)ccc5n4C4CCC(C)CC4)ccc3n2)c1` (centres unmarked) [Compound 543, 2-[2-(4′-chloro-4-methoxy-biphen-2-yl)-quinolin-6-yl]-1-(4-methyl-cyclohexyl)-1H-benzoimidazole-5-carboxylic acid], the inhibition at 33 µM is 102% and the inhibition at 100 µM was determined as 102%.
